Laboratory results taken from patent US4659696A, “Pharmaceutical composition and its nasal or vaginal use” (Takeda Chemical Industries, Ltd., priority 1982, dated 1987).

Assays:
Assay type in all cases: in vivo, rat
[1] = system: plasma glucose level; assay: Plasma glucose level after rectal insulin suppository in rats; conditions: rectal Witepsol W-35 suppository, insulin 50 IU/kg, before administration=100
Description: The results, which are shown in Table 11, indicate that the addition of α- or β-cyclodextrin results in an increased absorption of insulin.

[2] = system: plasma glucose level; assay: Plasma glucose level after nasal administration of insulin to rats; conditions: before administration=100
Experimental: Male SD strain rats (body weights 250 g, approx.) fasted for 16 hours are used in groups of at least 3 animals. Each animal is anesthetized with pentobarbital and administered nasal medication in accordance with the method described in International Journal of Pharmaceutics 7, 317 (1981). Then, 0.1 ml/kg of insulin solution is directly administered into the nasal cavity with a micropipette via the nostril.
The insulin solution used is a mixed solution of 10 U or 20 U of porcine insulin (about 0.2 mg or […]) and 0 mg to 10 mg [which correspond to 0 to 10%] of α-, β- or γ-cyclodextrin in 0.1 ml of an isotonic buffer solution (pH 7.4).
As control, insulin is intravenously administered and plasma glucose levels are determined in the manner as above.

[3] = system: plasma glucose level; assay: Plasma glucose level after rectal administration of insulin solution to rats; conditions: insulin 50 IU/kg, before administration=100
[4] = system: plasma glucose level; assay: Plasma glucose level after vaginal administration of insulin to rats; conditions: for Plasma glucose level (%): just before administration=100; for reduction in the area under the plasma glucose level-time curve within 6 hours after administration: mean±standard error

Substance: insulin: porcine insulin
- Change (%) in plasma glucose level ([1]; 5% (w/w) α-cyclodextrin, 0.5 hr.): 93.1%
- Change (%) in plasma glucose level ([1]; 5% (w/w) α-cyclodextrin, 1 hr.): 61.1%
- Change (%) in plasma glucose level ([1]; 5% (w/w) α-cyclodextrin, 1.5 hr.): 63.5%
- Change (%) in plasma glucose level ([1]; 5% (w/w) α-cyclodextrin, 2 hr.): 86.1%
- Change (%) in plasma glucose level ([1]; 5% (w/w) α-cyclodextrin, 3 hr.): 93.4%
- Change (%) in plasma glucose level ([1]; 5% (w/w) β-cyclodextrin, 0.5 hr.): 87.1%
- Change (%) in plasma glucose level ([1]; 5% (w/w) β-cyclodextrin, 1 hr.): 81.5%
- Change (%) in plasma glucose level ([1]; 5% (w/w) β-cyclodextrin, 1.5 hr.): 80.1%
- Change (%) in plasma glucose level ([1]; 5% (w/w) β-cyclodextrin, 2 hr.): 92.5%
- Change (%) in plasma glucose level ([1]; 5% (w/w) β-cyclodextrin, 3 hr.): 100.4%
- Change (%) in plasma glucose level ([1]; no cyclodextrin, 0.5 hr.): 98.1%
- Change (%) in plasma glucose level ([1]; no cyclodextrin, 1 hr.): 94.1%
- Change (%) in plasma glucose level ([1]; no cyclodextrin, 1.5 hr.): 97.4%
- Change (%) in plasma glucose level ([1]; no cyclodextrin, 2 hr.): 98.1%
- Change (%) in plasma glucose level ([1]; no cyclodextrin, 3 hr.): 102.5%
- Change (%) in plasma glucose level ([2]; intranasal, insulin 10 U/Kg, no cyclodextrin, 1 hr.): 93.7%
- Change (%) in plasma glucose level ([2]; intranasal, insulin 10 U/Kg, no cyclodextrin, 2 hr.): 99.3%
- Change (%) in plasma glucose level ([2]; intranasal, insulin 10 U/Kg, no cyclodextrin, 4 hr.): 103.0%
- Change (%) in plasma glucose level ([2]; intranasal, insulin 10 U/Kg, α-cyclodextrin 3%, 1 hr.): 73.5%
- Change (%) in plasma glucose level ([2]; intranasal, insulin 10 U/Kg, α-cyclodextrin 3%, 2 hr.): 59.7%
- Change (%) in plasma glucose level ([2]; intranasal, insulin 10 U/Kg, α-cyclodextrin 3%, 4 hr.): 62.9%
- Change (%) in plasma glucose level ([2]; intranasal, insulin 10 U/Kg, α-cyclodextrin 5%, 1 hr.): 59.4%
- Change (%) in plasma glucose level ([2]; intranasal, insulin 10 U/Kg, α-cyclodextrin 5%, 2 hr.): 46.8%
- Change (%) in plasma glucose level ([2]; intranasal, insulin 10 U/Kg, α-cyclodextrin 5%, 4 hr.): 54.4%
- Change (%) in plasma glucose level ([2]; intranasal, insulin 10 U/Kg, α-cyclodextrin 10%, 1 hr.): 33.8%
- Change (%) in plasma glucose level ([2]; intranasal, insulin 10 U/Kg, α-cyclodextrin 10%, 2 hr.): 24.8%
- Change (%) in plasma glucose level ([2]; intranasal, insulin 10 U/Kg, α-cyclodextrin 10%, 4 hr.): 40.3%
- Change (%) in plasma glucose level ([2]; intranasal, insulin 10 U/Kg, β-cyclodextrin 10% (suspension), 1 hr.): 62.5%
- Change (%) in plasma glucose level ([2]; intranasal, insulin 10 U/Kg, β-cyclodextrin 10% (suspension), 2 hr.): 48.6%
- Change (%) in plasma glucose level ([2]; intranasal, insulin 10 U/Kg, β-cyclodextrin 10% (suspension), 4 hr.): 49.7%
- Change (%) in plasma glucose level ([2]; intranasal, insulin 10 U/Kg, γ-cyclodextrin 10%, 1 hr.): 80.0%
- Change (%) in plasma glucose level ([2]; intranasal, insulin 10 U/Kg, γ-cyclodextrin 10%, 2 hr.): 81.0%
- Change (%) in plasma glucose level ([2]; intranasal, insulin 10 U/Kg, γ-cyclodextrin 10%, 4 hr.): 74.2%
- Change (%) in plasma glucose level ([2]; intranasal, insulin 20 U/Kg, no cyclodextrin, 1 hr.): 92.4%
- Change (%) in plasma glucose level ([2]; intranasal, insulin 20 U/Kg, no cyclodextrin, 2 hr.): 90.6%
- Change (%) in plasma glucose level ([2]; intranasal, insulin 20 U/Kg, no cyclodextrin, 4 hr.): 99.9%
- Change (%) in plasma glucose level ([2]; intranasal, insulin 20 U/Kg, α-cyclodextrin 5%, 1 hr.): 64.3%
- Change (%) in plasma glucose level ([2]; intranasal, insulin 20 U/Kg, α-cyclodextrin 5%, 2 hr.): 38.4%
- Change (%) in plasma glucose level ([2]; intranasal, insulin 20 U/Kg, α-cyclodextrin 5%, 4 hr.): 47.9%
- Change (%) in plasma glucose level ([2]; intravenous, insulin 5 U/Kg, no cyclodextrin, 1 hr.): 29.6%
- Change (%) in plasma glucose level ([2]; intravenous, insulin 5 U/Kg, no cyclodextrin, 2 hr.): 31.6%
- Change (%) in plasma glucose level ([2]; intravenous, insulin 5 U/Kg, no cyclodextrin, 4 hr.): 41.7%
- Change (%) in plasma glucose level ([3]; 5% (w/v) α-cyclodextrin, 0.5 hr.): 92.9%
- Change (%) in plasma glucose level ([3]; 5% (w/v) α-cyclodextrin, 1 hr.): 39.1%
- Change (%) in plasma glucose level ([3]; 5% (w/v) α-cyclodextrin, 1.5 hr.): 39.6%
- Change (%) in plasma glucose level ([3]; 5% (w/v) α-cyclodextrin, 2 hr.): 69.6%
- Change (%) in plasma glucose level ([3]; 5% (w/v) β-cyclodextrin, 0.5 hr.): 94.3%
- Change (%) in plasma glucose level ([3]; 5% (w/v) β-cyclodextrin, 1 hr.): 70.1%
- Change (%) in plasma glucose level ([3]; 5% (w/v) β-cyclodextrin, 1.5 hr.): 76.3%
- Change (%) in plasma glucose level ([3]; 5% (w/v) β-cyclodextrin, 2 hr.): 90.1%
- Change (%) in plasma glucose level ([3]; 5% (w/v) γ-cyclodextrin, 0.5 hr.): 94.8%
- Change (%) in plasma glucose level ([3]; 5% (w/v) γ-cyclodextrin, 1 hr.): 79.0%
- Change (%) in plasma glucose level ([3]; 5% (w/v) γ-cyclodextrin, 1.5 hr.): 81.3%
- Change (%) in plasma glucose level ([3]; 5% (w/v) γ-cyclodextrin, 2 hr.): 93.0%
- Change (%) in plasma glucose level ([3]; no cyclodextrin, 0.5 hr.): 102.2%
- Change (%) in plasma glucose level ([3]; no cyclodextrin, 1 hr.): 86.0%
- Change (%) in plasma glucose level ([3]; no cyclodextrin, 1.5 hr.): 95.2%
- Change (%) in plasma glucose level ([3]; no cyclodextrin, 2 hr.): 121.9%
- Plasma glucose level (%) ([4]; intravaginal (5% α-CD), insulin 20 Unit/kg, 0.5 hour): 66.5%
- Plasma glucose level (%) ([4]; intravaginal (5% α-CD), insulin 20 Unit/kg, 1 hour): 52.7%
- Plasma glucose level (%) ([4]; intravaginal (5% α-CD), insulin 20 Unit/kg, 2 hour): 40.0%
- Plasma glucose level (%) ([4]; intravaginal (5% α-CD), insulin 20 Unit/kg, 3 hour): 33.7%
- Plasma glucose level (%) ([4]; intravaginal (5% α-CD), insulin 20 Unit/kg, 4 hour): 31.4%
- Plasma glucose level (%) ([4]; intravaginal (5% α-CD), insulin 20 Unit/kg, 6 hour): 41.5%
- Plasma glucose level (%) ([4]; intravaginal (physiological saline), insulin 20 Unit/kg, no cyclodextrin, 0.5 hour): 80.7%
- Plasma glucose level (%) ([4]; intravaginal (physiological saline), insulin 20 Unit/kg, no cyclodextrin, 1 hour): 75.8%
- Plasma glucose level (%) ([4]; intravaginal (physiological saline), insulin 20 Unit/kg, no cyclodextrin, 2 hour): 77.2%
- Plasma glucose level (%) ([4]; intravaginal (physiological saline), insulin 20 Unit/kg, no cyclodextrin, 3 hour): 74.2%
- Plasma glucose level (%) ([4]; intravaginal (physiological saline), insulin 20 Unit/kg, no cyclodextrin, 4 hour): 66.9%
- Plasma glucose level (%) ([4]; intravaginal (physiological saline), insulin 20 Unit/kg, no cyclodextrin, 6 hour): 67.8%
- pharmacological effect versus control vaginal administration group ([4]; intravaginal, insulin 20 units/kg, 5% α-cyclodextrin): almost doubled
- reduction in the area under the plasma glucose level-time curve within 6 hours after administration ([4]; intravaginal, insulin 20 units/kg, 5% α-cyclodextrin (invention group)): 339.9±11.2 %×hour
- reduction in the area under the plasma glucose level-time curve within 6 hours after administration ([4]; intravaginal, insulin 20 units/kg, no cyclodextrin (control group)): 158.2±29.6 %×hour
- Plasma glucose level (%) ([4]; subcutaneous, insulin 5 Unit/kg, no cyclodextrin, 0.5 hour): 67.0%
- Plasma glucose level (%) ([4]; subcutaneous, insulin 5 Unit/kg, no cyclodextrin, 1 hour): 54.7%
- Plasma glucose level (%) ([4]; subcutaneous, insulin 5 Unit/kg, no cyclodextrin, 2 hour): 42.2%
- Plasma glucose level (%) ([4]; subcutaneous, insulin 5 Unit/kg, no cyclodextrin, 3 hour): 35.1%
- Plasma glucose level (%) ([4]; subcutaneous, insulin 5 Unit/kg, no cyclodextrin, 4 hour): 37.5%
- Plasma glucose level (%) ([4]; subcutaneous, insulin 5 Unit/kg, no cyclodextrin, 6 hour): 74.1%
